Measured values taken from US20080262079A1, “Cannabinoid Compositions and Methods of Use Thereof” (priority 2004, published 2008).

What was measured:
[1] = test system: Th1 (IFN-γ, IL-12) and Th2 (IL-4, IL-10) cytokines, TGF-β; test: Cytokine analysis by ELISA in culture supernatants of conA-stimulated lymphoid cells from THC-treated mice; format: cell-based, mouse
[2] = Blood analysis (cholesterol, triglyceride), body weight and tolerability in THC-treated apoE−/− mice
Procedure: The anti-atherosclerotic potential of THC was tested in the apolipoprotein E^−/− (apoE^−/−) mouse model of atherosclerosis. The studies presented herein utilized delta-9-Tetrahydrocannoabinol (THC), the major component of marijuana, as its immune-modulating effects have been well-documented in several studies. (See e.g., Srivastava, Immuopharmacology 40, 179-85 (1998); Zhu, J Immunol 165, 373-80 (2000); Yuan J Neuroimmunol 133, 124-31 (2002); Lyman, J Neuroimmunol 23, 73-81 (1989); Malfait, Proc Natl Acad Sci USA 97, 9561-6 (2000)). In addition, this compound is already commercially available, for example as an anti-vomiting drug or for use in treating anorexia. Since potential novel anti-inflammatory therapies should be well tolerated and preferably devoid of psychotropic effects, a low dosage of THC (e.g., 1 mg/kg) was used for daily oral administration. […] (Chesher, et al., Pharmacol Biochem Behav 35:861-4 (1990); Brenneisen, et al., Int J Clin Pharmacol Ther 34, 446-52 (1996); Chan, et al., Fundam Appl Toxicol 30, 109-17 (1996)) To test the therapeutic effect of THC on established atherosclerosis, apoE^−/− mice were fed with a high cholesterol diet for 5 weeks, and THC was then administered during the following 6 weeks, while maintaining the cholesterol diet.
Animals: As a model of in vivo atherosclerosis, 10-week old male apolipoprotein E^−/− mice (apoE^−/−) C57BL/6 mice were used. For histological and atherosclerotic plaque development analysis, mice were fed with a high cholesterol diet (1.25% cholesterol, 0% cholate; Research Diets, New Brunswick N.J., USA) for 5 weeks or for 11 weeks (n=6 per group). THC was administered during the last 6 weeks of the 11 week diet group. In parallel, control mice (littermates) received milk without THC (n =8). For proliferation and cytokine analysis, littermate apoE^−/− mice were divided into 2 groups (control, THC; n=6 per group) and fed with a high cholesterol diet for 4 weeks. THC or milk only was administered during the last 2 weeks of diet. All animal studies were approved by the local Ethical Committee.
Blood Analysis: For measurements of cholesterol and triglyceride content, blood samples were collected at the beginning and the end of the diet. HDL and VLDL cholesterol fractions of sera were measured by fast protein lipid chromatography. THC levels in blood (after 2, 4 and 6 weeks of treatment) were measured by gas chromatography/mass spectrometry with a limit of detection of […] as previously described. (Giroud, et al. Forensic Sci Int 123, 159-64 (2001)).

splenocytes = test: Proliferation assay (MTS) of conA-stimulated splenocytes isolated from THC-treated mice; format: cell-based, mouse; details: cells from THC-treated vs untreated apoE−/− mice, conA 72 hours
Procedure: Proliferation Assay: Splenocytes (SC) or lymph node cells (LNC) were isolated from THC- or milk-treated mice and cultured in 96-well plates at a concentration of 5×10^6 cells/ml. Culture medium consisted of RPMI 1640 supplemented with 25 mM HEPES buffer, 2 mM L-glutamine, 100 U/ml penicillin, 0.1 mg/ml streptomycin, and 10% heat-inactivated fetal bovine serum (FBS). Cells were stimulated in triplicates with varying concentrations of concanavalin (con A; Sigma). After 72 hours, cell proliferation was determined using a non-radioactive MTS cell proliferation assay (Promega) according to the manufacturer's guidelines.

[3] = THC levels in blood serum of THC-treated mice (gas chromatography/mass spectrometry); format: in vivo, mouse; details: apoE−/− mice, THC 1 mg/kg per day orally
Procedure: (§1) Reagents: Synthetic delta-9-THC Marinol® (Dronanbinol, Unimed Pharmaceuticals, Inc.; Marietta Ga., USA) was dissolved at 0.1 mg/ml in 5.5.% fat milk (w/v) in water. THC (1 mg/kg per day) in 1.5% fat milk (w/v) was administered orally within drinking water. Delta-9-THC for in vitro experiments was purchased as a stock solution of 1 mg/ml in methanol (Cambridge Isotype Laboratories, Andover Mass., USA) and were further diluted in warm medium immediately before use. For in vitro transmigration assays, all experiments were performed by adding corresponding dilutions of the THC vehicle (methanol) to the non-THC-treated controls.

[4] = test system: thioglycollate-elicited peritoneal macrophages from apoE−/− mice; test: Transmigration assay: chemo-attraction of peritoneal macrophages to MCP-1; format: cell-based, mouse; details: THC 0.6 ng/ml, 4 hours with 1 ng/ml mIFN-γ, 1 nM MCP-1, 90 minutes
Description: Early processes of atherosclerosis involve endothelial dysfunction in response to cardiovascular risk factors, which triggers the recruitment of leukocytes (monocytes/macrophages and T lymphocytes) into the vessel wall. The studies described herein address whether treatment with THC inhibited cell migration using a functional in vitro experiment. Thioglycollate-stimulated peritoneal mouse macrophages were isolated from apoE^−/− mice and assayed for their migration capacity by chemo-attraction to MCP-1.
as §1, with “For in vitro transmigration assays, all experiments were performed by adding corresponding dilutions of the THC vehicle (methanol) to the non-THC-treated controls.” left out
Transmigration assay: Macrophages from the peritoneal cavity of thioglycollate-injected apoE^−/− mice were isolated 4 days post-injection and stimulated (in triplicates) for 4 hours with 1 ng/ml mIFN-γ in the presence or absence of 0.6 ng/ml THC (n=4 mice). […] Following 90 minutes of incubation, the number of migrated cells was determined by counting (blind observers) 10 microscopic fields per well.

[5] = test system: apolipoprotein E−/− (apoE−/−) mouse model of atherosclerosis; test: Atherosclerotic lesion size quantification in apoE−/− mice on high cholesterol diet (Sudan IV staining); format: in vivo; details: 11 weeks high cholesterol diet, THC 1 mg/kg daily orally during last 6 weeks, vs control mice
Procedure: as §1
Atherosclerotic lesion size quantification: Atherosclerotic lesions within the thoraco-abdominal aorta and aortic roots were analyzed by Sudan IV staining for lipid deposition. Quantification was performed by computer image analysis using the MetaMorph6 software (Zeiss, Feldbach, Switzerland) as previously described. (Kwak et al., Circulation 107, 1033-9 (2003)).

[6] = test system: murine collagen-induced arthritis, a mouse model of rheumatoid arthritis; details: cited from earlier work
[7] = THC-treated vs untreated mice, conA 2 μg/ml, supernatant 48 hours, ELISA
[8] = THC 1 mg/kg per day orally, apoE−/− mice
[9] = THC-treated vs control apoE−/− mice

Compound	IL-4 expression ([1]; THC-treated mice, conA-stimulated cells, ELISA)	IL-12 expression ([1]; THC-treated mice, conA-stimulated cells, supernatant 48 hours, ELISA)	Th1/Th2 balance (ratio of IFN-γ to IL-10 concentration) ([1]; THC-treated vs untreated mice)	IFN-γ production [1, 7]	TGF-β production [1, 7]	IL-10 production ([1]; THC-treated vs untreated mice, conA 2 μg/ml, supernatant 72 hours, ELISA)	deaths during treatment [2, 8]	unhealthy behavior [2, 8]	body weights [2, 9]	serum cholesterol levels [2, 9]	serum triglyceride levels [2, 9]	proliferative responses of in vitro stimulated splenocytes (splenocytes)	THC concentration in blood serum [3]	migration of macrophages [4]	progression of atherosclerotic lesions within the aortic roots [5]	proliferation and IFN-γ production of lymph node cells from treated mice (Th1 responses) ([6]; collagen-induced arthritis mice)	chronic inflammation in collagen-induced arthritis ([6]; mouse model of rheumatoid arthritis)
CCCCCc1cc(O)c2c(c1)OC(C)(C)C1CCC(C)=CC21 (centres unmarked) [THC, delta-9-tetrahydrocannabinol]	neither expression of IL-4 nor IL-12 was detectable	neither expression of IL-4 nor IL-12 was detectable	shift of the Th1/Th2 balance	significantly less	modest, but not significant, downregulation	modest, but not significant, downregulation	None of the THC-treated mice died during treatment	none showed unhealthy behavior	No differences	No differences	No differences	significantly reduced	0.6 ng/mL	significantly inhibited	significantly reduced progression of atherosclerotic lesions		
C=C(C)[C@@H]1CCC(C)=C[C@H]1c1c(O)cc(CCCCC)cc1O [cannabidiol]																reduced	ameliorated chronic inflammation
